Results published in patent US20090318351A1, “METHOD OF TREATING ACUTE ST-ELEVATION MYOCARDIAL INFARCTION WITH A DELTA PKC ANTAGONIST” (priority 2008, published 2009).

Experiment: Plasma stability of capped peptides (KAI-9706 modified at amino and carboxy termini)
Conditions: rat
Procedure: Plasma stability of capped peptides was compared. KAI-9706 was modified step-wise at its amino and carboxy termini. Plasma stability as measured by the percent of peptide composition remaining after 15 minutes.

Row | Structure (SMILES) | remaining at 0.25 h [%]
1 | CC[C@H](C)[C@H](NC(=O)[C@@H]1CCCN1C(=O)[C@H](C)NC(=O)[C@H](CC(=O)O)NC(=O)[C@H](Cc1c[nH]cn1)NC(=O)[C@@H](N)CSSC[C@H](N)C(=O)N[C@@H](Cc1ccc(O)cc1)C(=O)NCC(=O)N[C@@H](CCCNC(=N)N)C(=O)N[C@@H](CCCCN)C(=O)N[C@@H](CCCCN)C(=O)N[C@@H](CCCNC(=N)N)C(=O)N[C@@H](CCCNC(=N)N)C(=O)N[C@@H](CCC(N)=O)C(=O)N[C@@H](CCCNC(=N)N)C(=O)N[C@@H](CCCNC(=N)N)C(=O)N[C@@H](CCCNC(=N)N)C(N)=O)C(=O)NCC(=O)N[C@@H](Cc1ccc(O)cc1)C(=O)N[C@@H](CC(=O)O)C(=O)O [KAI-9706 carrier H—NH2 cargo H—OH] | 60
2 | CC[C@H](C)[C@H](NC(=O)[C@@H]1CCCN1C(=O)[C@H](C)NC(=O)[C@H](CC(=O)O)NC(=O)[C@H](Cc1c[nH]cn1)NC(=O)[C@@H](N)CSSC[C@H](NC(C)=O)C(=O)N[C@@H](Cc1ccc(O)cc1)C(=O)NCC(=O)N[C@@H](CCCNC(=N)N)C(=O)N[C@@H](CCCCN)C(=O)N[C@@H](CCCCN)C(=O)N[C@@H](CCCNC(=N)N)C(=O)N[C@@H](CCCNC(=N)N)C(=O)N[C@@H](CCC(N)=O)C(=O)N[C@@H](CCCNC(=N)N)C(=O)N[C@@H](CCCNC(=N)N)C(=O)N[C@@H](CCCNC(=N)N)C(=O)O)C(=O)NCC(=O)N[C@@H](Cc1ccc(O)cc1)C(=O)N[C@@H](CC(=O)O)C(=O)O [KAI-9706 carrier Ac—OH cargo H—OH] | 57
3 | CC[C@H](C)[C@H](NC(=O)[C@@H]1CCCN1C(=O)[C@H](C)NC(=O)[C@H](CC(=O)O)NC(=O)[C@H](Cc1c[nH]cn1)NC(=O)[C@H](CSSC[C@H](N)C(=O)N[C@@H](Cc1ccc(O)cc1)C(=O)NCC(=O)N[C@@H](CCCNC(=N)N)C(=O)N[C@@H](CCCCN)C(=O)N[C@@H](CCCCN)C(=O)N[C@@H](CCCNC(=N)N)C(=O)N[C@@H](CCCNC(=N)N)C(=O)N[C@@H](CCC(N)=O)C(=O)N[C@@H](CCCNC(=N)N)C(=O)N[C@@H](CCCNC(=N)N)C(=O)N[C@@H](CCCNC(=N)N)C(N)=O)NC(C)=O)C(=O)NCC(=O)N[C@@H](Cc1ccc(O)cc1)C(=O)N[C@@H](CC(=O)O)C(N)=O [KAI-9706 carrier H—NH2 cargo Ac—NH2] | 51
4 | CC[C@H](C)[C@H](NC(=O)[C@@H]1CCCN1C(=O)[C@H](C)NC(=O)[C@H](CC(=O)O)NC(=O)[C@H](Cc1c[nH]cn1)NC(=O)[C@H](CSSC[C@H](NC(C)=O)C(=O)N[C@@H](Cc1ccc(O)cc1)C(=O)NCC(=O)N[C@@H](CCCNC(=N)N)C(=O)N[C@@H](CCCCN)C(=O)N[C@@H](CCCCN)C(=O)N[C@@H](CCCNC(=N)N)C(=O)N[C@@H](CCCNC(=N)N)C(=O)N[C@@H](CCC(N)=O)C(=O)N[C@@H](CCCNC(=N)N)C(=O)N[C@@H](CCCNC(=N)N)C(=O)N[C@@H](CCCNC(=N)N)C(N)=O)NC(C)=O)C(=O)NCC(=O)N[C@@H](Cc1ccc(O)cc1)C(=O)N[C@@H](CC(=O)O)C(N)=O [KAI-9706 carrier Ac—NH2 cargo Ac—NH2] | 90
5 | CC[C@H](C)[C@H](NC(=O)[C@@H]1CCCN1C(=O)[C@H](C)NC(=O)[C@H](CC(=O)O)NC(=O)[C@H](Cc1c[nH]cn1)NC(=O)[C@H](CSSC[C@H](NC(C)=O)C(=O)N[C@@H](Cc1ccc(O)cc1)C(=O)NCC(=O)N[C@@H](CCCNC(=N)N)C(=O)N[C@@H](CCCCN)C(=O)N[C@@H](CCCCN)C(=O)N[C@@H](CCCNC(=N)N)C(=O)N[C@@H](CCCNC(=N)N)C(=O)N[C@@H](CCC(N)=O)C(=O)N[C@@H](CCCNC(=N)N)C(=O)N[C@@H](CCCNC(=N)N)C(=O)N[C@@H](CCCNC(=N)N)C(=O)O)NC(C)=O)C(=O)NCC(=O)N[C@@H](Cc1ccc(O)cc1)C(=O)N[C@@H](CC(=O)O)C(N)=O [KAI-9706 carrier Ac—OH cargo Ac—NH2] | 48
